Source: the supplement of paper PMC10627819

Legend:
Experiment in all cases: Bliss interaction score (quartile over a dose matrix) (fitness difference); higher = more antagonism (negative = synergy)
B. subtilis 168 = tested on: B. subtilis 168
Outline: (§1)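 The Bliss score takes observed fitness and subtracts the expected fitness, calculated as a product of single-drug fitness values. Those single-drug values were inferred from the combination data. Fitness is OD595 at entry into stationary phase divided by the plate's robust no-drug mean, capped at 1, and the score is summarised by quartiles across technical, biological and donor/recipient replicates.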

S. aureus DSM 20231 = tested on: S. aureus DSM 20231
Outline: as §1

S. aureus Newman = tested on: S. aureus Newman
Outline: as §1

S. pneumoniae D39V = tested on: S. pneumoniae D39V
Outline: as §1
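Further: first quartile when negative (synergy) and third quartile when positive (antagonism).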

| SMILES | Bliss interaction score (B. subtilis 168) | Bliss interaction score (S. aureus DSM 20231) | Bliss interaction score (S. aureus Newman) | Bliss interaction score (S. pneumoniae D39V) | Bliss interaction score (B. subtilis 168; main component drawn) | Bliss interaction score (S. aureus DSM 20231; main component drawn) | Bliss interaction score (S. aureus Newman; main component drawn) | Bliss interaction score (S. pneumoniae D39V; main component drawn) |
| --- | --- | --- | --- | --- | --- | --- | --- | --- |
| CO/N=C(\C(=O)N[C@@H]1C(=O)N2C(C(=O)[O-])=C(C[N+]3(C)CCCC3)CS[C@H]12)c1csc(N)n1 [Cefepime] + CC[C@H]1OC(=O)[C@H](C)[C@@H](O[C@H]2C[C@@](C)(OC)[C@@H](O)[C@H](C)O2)[C@H](C)[C@@H](O[C@@H]2O[C@H](C)C[C@H](N(C)C)[C@H]2O)[C@](C)(O)C[C@@H](C)C(=O)[C@H](C)[C@@H](O)[C@]1(C)O [Erythromycin] | 0.0672 | 0.0701 | 0.0704 | 0.0938 | – | – | – | – |
| CCCCCCCCCC(=O)N[C@@H](Cc1c[nH]c2ccccc12)C(=O)N[C@H](CC(N)=O)C(=O)N[C@@H](CC(=O)O)C(=O)N[C@@H]1C(=O)NCC(=O)N[C@@H](CCCN)C(=O)N[C@@H](CC(=O)O)C(=O)N[C@H](C)C(=O)N[C@@H](CC(=O)O)C(=O)NCC(=O)N[C@H](CO)C(=O)N[C@@H]([C@H](C)CC(=O)O)C(=O)N[C@@H](CC(=O)c2ccccc2N)C(=O)O[C@@H]1C [Daptomycin] + CC[C@H]1OC(=O)[C@H](C)C(=O)[C@H](C)[C@@H](O[C@@H]2O[C@H](C)C[C@H](N(C)C)[C@H]2O)[C@](C)(OC)C[C@@H](C)C(=O)[C@H](C)[C@H]2N(CCCCn3cnc(-c4cccnc4)c3)C(=O)O[C@]12C [Telithromycin] | 0.0516 | 0.0926 | 0.0361 | -0.0436 | – | – | – | – |
| CO/N=C(\C(=O)N[C@@H]1C(=O)N2C(C(=O)[O-])=C(C[N+]3(C)CCCC3)CS[C@H]12)c1csc(N)n1 [Cefepime] + CN(C)[C@@H]1C(O)=C(C(N)=O)C(=O)[C@@]2(O)C(O)=C3C(=O)c4c(O)ccc(Cl)c4[C@@](C)(O)[C@H]3C[C@@H]12 [Clortetracycline] | 0.0651 | 0.0809 | 0.105 | 0.163 | – | – | – | – |
| CCN(CC)CCOC(=O)c1ccc(N)cc1 [Procaine] + CC[C@H]1OC(=O)[C@H](C)C(=O)[C@H](C)[C@@H](O[C@@H]2O[C@H](C)C[C@H](N(C)C)[C@H]2O)[C@](C)(OC)C[C@@H](C)C(=O)[C@H](C)[C@H]2N(CCCCn3cnc(-c4cccnc4)c3)C(=O)O[C@]12C [Telithromycin] | -0.0224 | -0.0287 | 0.0289 | 0.0708 | – | – | – | – |
| CC1(C)S[C@@H]2[C@H](NC(=O)[C@H](N)c3ccc(O)cc3)C(=O)N2[C@H]1C(=O)O [Amoxicillin] + C1=CC(=CC(=C1)Cl)NN=C(C#N)C#N [CCCP] | 0.115 | -0.0295 | -0.0504 | -0.0978 | – | – | – | – |
| CC1(C)S[C@@H]2[C@H](NC(=O)[C@H](N)c3ccc(O)cc3)C(=O)N2[C@H]1C(=O)O [Amoxicillin] + CC1(C)S[C@@H]2[C@H](NC(=O)Cc3ccccc3)C(=O)N2[C@H]1C(=O)O [PenicillinG] | -0.186 | -0.0644 | 0.0595 | -0.0781 | – | – | – | – |
| CCCCCCCCCC(=O)N[C@@H](Cc1c[nH]c2ccccc12)C(=O)N[C@H](CC(N)=O)C(=O)N[C@@H](CC(=O)O)C(=O)N[C@@H]1C(=O)NCC(=O)N[C@@H](CCCN)C(=O)N[C@@H](CC(=O)O)C(=O)N[C@H](C)C(=O)N[C@@H](CC(=O)O)C(=O)NCC(=O)N[C@H](CO)C(=O)N[C@@H]([C@H](C)CC(=O)O)C(=O)N[C@@H](CC(=O)c2ccccc2N)C(=O)O[C@@H]1C [Daptomycin] + CC[C@H]1OC(=O)[C@H](C)[C@@H](O[C@H]2C[C@@](C)(OC)[C@@H](O)[C@H](C)O2)[C@H](C)[C@@H](O[C@@H]2O[C@H](C)C[C@H](N(C)C)[C@H]2O)[C@](C)(O)C[C@@H](C)C(=O)[C@H](C)[C@@H](O)[C@]1(C)O [Erythromycin] | 0.102 | 0.0418 | -0.034 | -0.0815 | – | – | – | – |
| Cn1nnc(-c2ccc(-c3ccc(N4C[C@H](CO)OC4=O)cc3F)cn2)n1 [Tedizolid] + CCCCCCCCCC(=O)N[C@@H]1[C@H]([C@@H]([C@H](O[C@H]1OC2=C3C=C4C=C2OC5=C(C=C(C=C5)[C@H]([C@H]6C(=O)N[C@@H](C7=C(C(=CC(=C7)O)OC8[C@H]([C@H]([C@@H]([C@H](O8)CO)O)O)O)C9=C(C=CC(=C9)[C@H](C(=O)N6)NC(=O)[C@@H]4NC(=O)[C@@H]1C2=CC(=CC(=C2)OC2=C(C=CC(=C2)[C@H](C(=O)N[C@H](CC2=CC(=C(O3)C=C2)Cl)C(=O)N1)N)O)O)O)C(=O)O)O[C@H]1[C@@H]([C@H]([C@@H]([C@H](O1)CO)O)O)NC(=O)C)Cl)CO)O)O [Teicoplanin] | – | – | – | – | 0.065 | -0.083 | 0.0811 | 0.295 |
| C[C@H]1COc2c(N3CCN(C)CC3)c(F)cc3c(=O)c(C(=O)O)cn1c23 [Levofloxacin] + CC[C@H]1OC(=O)[C@H](C)C(=O)[C@H](C)[C@@H](O[C@@H]2O[C@H](C)C[C@H](N(C)C)[C@H]2O)[C@](C)(OC)C[C@@H](C)C(=O)[C@H](C)[C@H]2N(CCCCn3cnc(-c4cccnc4)c3)C(=O)O[C@]12C [Telithromycin] | 0.0654 | 0.0361 | 0.0408 | 0.0737 | – | – | – | – |
| CO/N=C(\C(=O)N[C@@H]1C(=O)N2C(C(=O)[O-])=C(C[N+]3(C)CCCC3)CS[C@H]12)c1csc(N)n1 [Cefepime] + CN[C@H](CC(C)C)C(=O)N[C@H]1C(=O)N[C@@H](CC(N)=O)C(=O)N[C@H]2C(=O)N[C@H]3C(=O)N[C@H](C(=O)N[C@H](C(=O)O)c4cc(O)cc(O)c4-c4cc3ccc4O)[C@H](O[C@H]3C[C@](C)(N)[C@@H](O)[C@H](C)O3)c3ccc(c(Cl)c3)Oc3cc2cc(c3O[C@@H]2O[C@H](CO)[C@@H](O)[C@H](O)[C@H]2O[C@H]2C[C@](C)(NCc3ccc(-c4ccc(Cl)cc4)cc3)[C@@H](O)[C@H](C)O2)Oc2ccc(cc2Cl)[C@H]1O [Oritavancin] | 0.0342 | 0.0977 | 0.0749 | -0.0811 | – | – | – | – |
| CO/N=C(\C(=O)N[C@@H]1C(=O)N2C(C(=O)[O-])=C(C[N+]3(C)CCCC3)CS[C@H]12)c1csc(N)n1 [Cefepime] + CC[C@H]1OC(=O)[C@H](C)C(=O)[C@H](C)[C@@H](O[C@@H]2O[C@H](C)C[C@H](N(C)C)[C@H]2O)[C@](C)(OC)C[C@@H](C)C(=O)[C@H](C)[C@H]2N(CCCCn3cnc(-c4cccnc4)c3)C(=O)O[C@]12C [Telithromycin] | 0.122 | 0.0789 | 0.0252 | -0.0487 | – | – | – | – |
| CCCCCCCCCC(=O)N[C@@H](Cc1c[nH]c2ccccc12)C(=O)N[C@H](CC(N)=O)C(=O)N[C@@H](CC(=O)O)C(=O)N[C@@H]1C(=O)NCC(=O)N[C@@H](CCCN)C(=O)N[C@@H](CC(=O)O)C(=O)N[C@H](C)C(=O)N[C@@H](CC(=O)O)C(=O)NCC(=O)N[C@H](CO)C(=O)N[C@@H]([C@H](C)CC(=O)O)C(=O)N[C@@H](CC(=O)c2ccccc2N)C(=O)O[C@@H]1C [Daptomycin] + CC(=O)O[C@H]1C[C@@]2(C)[C@@H](C[C@@H](O)[C@H]3[C@@]4(C)CC[C@@H](O)[C@@H](C)[C@@H]4CC[C@@]32C)/C1=C(\CCC=C(C)C)C(=O)O [Fusidic acid] | 0.0625 | 0.0265 | -0.0422 | -0.109 | – | – | – | – |
